A word on the inhibition: it is the change of the read-out against control, counted positive when it falls. Broadly, the IC50 is the point on the concentration scale where inhibition reaches its midpoint.

The target of the assay is T1, GST-tagged ROR gamma ligand binding domain (LBD) (Homo sapiens, UniProt P51449).
T1 construct: purchased Invitrogen
T1 sequence (P51449 269-508 limits assumed): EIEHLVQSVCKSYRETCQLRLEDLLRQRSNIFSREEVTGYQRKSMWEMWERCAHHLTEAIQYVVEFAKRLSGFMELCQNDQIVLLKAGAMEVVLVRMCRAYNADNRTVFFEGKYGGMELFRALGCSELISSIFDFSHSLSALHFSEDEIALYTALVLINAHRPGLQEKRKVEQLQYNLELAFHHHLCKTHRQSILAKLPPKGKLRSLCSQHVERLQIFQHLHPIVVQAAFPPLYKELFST
As to the kind of experiment: TR-FRET assay for ROR gamma (LanthaScreen co-activator peptide recruitment). The format is biochemical. The conditions noted are these: for inhibition at 1 µM: compound concentration 1 μM; for inhibition at 1 µM / inhibition at 10 µM: TR-FRET ratio 520/495, percent of control; for inhibition at 10 µM: compound concentration 10 μM; for IC50: from dose response curve, nonlinear regression, read-out: IC50 range. In a few lines: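 Antagonist-mode co-activator recruitment: 10 nM GST-RORγ LBD with compound (4% DMSO final) in 25 mM HEPES pH 7.4, 100 mM NaCl, 5 mM DTT, 0.01% BSA, 1 h at 22° C.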

A value given as a limit tells only on which side of the number the result lay.

On to `CC(O)C(F)(F)c1ccc(CC(=O)Nc2ccc(-c3nccnc3N3CC(OCc4ccccc4)C3)cc2)cc1` (stereo not drawn) [Example 94, N-(4-(3-(3-(Benzyloxy)azetidin-1-yl)pyrazin-2-yl)phenyl)-2-(4-(1,1-difluoro-2-hydroxypropyl)phenyl)acetamide], for which the inhibition at 1 µM came to 15.8% and the inhibition at 10 µM turned out to be 45.6%.

Turning to `Cc1ccc([C@H](C)Nc2nccnc2-c2ccc(NC(=O)Cc3ccc(C(F)(F)C(C)O)cc3)cc2)c(C)c1` (stereo partly drawn) [Example 95, 2-(4-(1,1-Difluoro-2-hydroxypropyl)phenyl)-N-(4-(3-(((S)-1-(2,4-dimethylphenyl)ethyl)amino)pyrazin-2-yl)phenyl)acetamide], the inhibition at 1 µM came to 93.7%, the inhibition at 10 µM was determined as 95.4% and the IC50 is < 0.05 µM.

Regarding `CCC(F)(F)c1ccc(CC(=O)Nc2ccc(-c3nccnc3N3CCN(C(=O)C4CC4)CC3)cc2)cc1` [Example 96, N-(4-(3-(4-(Cyclopropanecarbonyl)piperazin-1-yl)pyrazin-2-yl)phenyl)-2-(4-(1,1-difluoropropyl)phenyl)acetamide], the inhibition at 1 µM came to 47.7% and the inhibition at 10 µM was 77.2%.

With `CCC(F)(F)c1ccc(CC(=O)Nc2ccc(-c3nccnc3NC(CO)c3ccccc3)cc2)cc1` (stereo not drawn) [Example 97, 2-(4-(1,1-Difluoropropyl)phenyl)-N-(4-(3-((2-hydroxy-1-phenylethyl)amino)pyrazin-2-yl)phenyl)acetamide], the inhibition at 1 µM is 22.5% and the inhibition at 10 µM was found to be 46.2%.

In the case of `Cc1ccc([C@@H](C)Oc2nccnc2-c2ccc(NC(=O)Cc3ccc(C(F)(F)C(C)O)cc3)cc2)c(C)c1` (stereo partly drawn) [Example 98, 2-(4-(1,1-Difluoro-2-hydroxypropyl)phenyl)-N-(4-(3-((R)-1-(2,4-dimethylphenyl)ethoxy)pyrazin-2-yl)phenyl)acetamide], the inhibition at 1 µM was 89.5%, the inhibition at 10 µM amounted to 89% and the IC50 was < 0.05 µM.

For the molecule `CCC(F)(F)c1ccc(CC(=O)Nc2ccc(-c3nccnc3N3CCN(C4COC4)CC3)cc2)cc1` [Example 99, 2-(4-(1,1-Difluoropropyl)phenyl)-N-(4-(3-(4-(oxetan-3-yl)piperazin-1-yl)pyrazin-2-yl)phenyl)acetamide], the inhibition at 1 µM was 79.2%, the inhibition at 10 µM turned out to be 91.9% and the 50% inhibitory concentration (IC50) was 0.05 to 0.1 µM.

Values taken from patent US10344024B2, “Compounds as ROR gamma modulators” (Glenmark Pharmaceuticals S.A., priority 2015, dated 2019).
